Data published in patent US10160755B2 (Plexxikon Inc., priority 2015, dated 2018).

Target: T1, BA/F3-FLT3-ITD + D835Y cells (Homo sapiens, UniProt P36888, D835Y, cells depend on it, form not given)
T1 sequence (P36888 1-993 D835Y): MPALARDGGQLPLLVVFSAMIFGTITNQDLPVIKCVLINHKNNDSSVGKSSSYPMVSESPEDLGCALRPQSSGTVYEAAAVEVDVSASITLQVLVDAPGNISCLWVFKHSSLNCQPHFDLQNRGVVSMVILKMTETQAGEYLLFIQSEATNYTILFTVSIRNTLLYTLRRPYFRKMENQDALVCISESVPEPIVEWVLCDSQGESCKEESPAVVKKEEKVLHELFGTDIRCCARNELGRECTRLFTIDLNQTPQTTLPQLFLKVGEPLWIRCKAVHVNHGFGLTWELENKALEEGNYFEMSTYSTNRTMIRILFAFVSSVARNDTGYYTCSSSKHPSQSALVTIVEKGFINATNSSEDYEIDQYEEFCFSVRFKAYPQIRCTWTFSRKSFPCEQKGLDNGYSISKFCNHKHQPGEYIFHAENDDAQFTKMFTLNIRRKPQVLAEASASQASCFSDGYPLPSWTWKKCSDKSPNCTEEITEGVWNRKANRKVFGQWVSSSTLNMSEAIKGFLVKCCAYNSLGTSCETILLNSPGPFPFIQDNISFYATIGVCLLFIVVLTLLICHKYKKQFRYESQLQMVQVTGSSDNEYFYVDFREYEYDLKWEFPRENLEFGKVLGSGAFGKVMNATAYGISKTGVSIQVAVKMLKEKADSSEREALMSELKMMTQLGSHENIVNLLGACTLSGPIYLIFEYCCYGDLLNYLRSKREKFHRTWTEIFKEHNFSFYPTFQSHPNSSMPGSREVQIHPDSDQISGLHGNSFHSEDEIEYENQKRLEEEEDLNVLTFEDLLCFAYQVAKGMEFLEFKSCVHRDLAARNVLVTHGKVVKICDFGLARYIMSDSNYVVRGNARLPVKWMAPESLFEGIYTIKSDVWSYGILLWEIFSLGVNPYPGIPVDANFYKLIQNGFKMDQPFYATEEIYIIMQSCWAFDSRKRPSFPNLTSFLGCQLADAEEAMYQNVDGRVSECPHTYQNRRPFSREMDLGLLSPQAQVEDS
Assay: BA/F3-FLT3-ITD + D835Y cell proliferation assay (CellTiter-Glo)
Assay type: cell-based, murine
Conditions: BaF3 cells, read-out: BaF3_FLT3_ITD/D835Y IC50
Source text: The FLT3 inhibitors may also be assessed using leukemia cell lines that express endogenous FLT3-ITD or cells that are engineered to express wild-type or mutant FLT3. The cells expressing endogenous FLT3 are dependent upon FLT3 catalytic activity for growth. For the engineered cells, murine BA/F3 cells were transfected with full-length FLT3 (either wild-type, or containing the ITD, D835Y, or F691L mutations, as noted). The parental BA/F3 cells are dependent upon Interleukin-3 (IL-3) for survival, and introduction of the FLT3 constructs renders these cells dependent upon FLT3 kinase activity when cultured in the absence of IL-3. Engineered BA/F3 cell growth assays can be performed in either the absence or presence of IL-3, to assess the compound inhibition of FLT3 or to detect the presence of off-target activity, respectively. Inhibitors of FLT3 kinase activity reduce or eliminate the FLT3 oncogenic signaling, resulting in reduced cell proliferation. This inhibition is measured as a function of compound concentration to assess IC50 values.
Cells were seeded at 1×10^4 cells per well of a 96 well cell culture plate in 50 μl of cell culture medium. Compounds were dissolved in DMSO, typically at a concentration of 5 mM and were serially diluted 1:3 for a total of eight points and added to the cells to final concentrations of 10, 3.3, 1.1, 0.37, 0.12, 0.041, 0.014 and 0.0046 μM in 100 μl cell culture medium (final concentration 0.2% DMSO). […] The cells were incubated at 37° C., 5% CO2 for three days. CellTiter-Glo Buffer (Promega Cell Viability Assay catalog #G7573) and substrate were equilibrated to room temperature, and enzyme/substrate Recombinant Firefly Luciferase/Beetle Luciferin was reconstituted. […] The plates were read on a Tecan M1000 using Luminescence protocol modified to read 0.1 s per well. The luminescence reading assesses the ATP content, which correlates directly with cell number such that the reading as a function of compound concentration was used to determine the IC50 value.

Row | GI50 [nM] | Compound
1 | 237 | COc1cnc2[nH]cc(-c3ccc4ncsc4c3)c2c1 [Compound 3]
2 | 839 | COc1cnc2[nH]cc(-c3ccc4[nH]ccc4c3)c2c1 [Compound 1, reference compound]
3 | 225 | COc1cnc2[nH]cc(-c3ccc4[nH]cnc4c3)c2c1 [Compound 2]
